Here are results for two compounds from patent publication US20160213619A1, “INTRAORALLY DISINTEGRABLE TABLET COMPRISING DISINTEGRABLE GRANULAR COMPOSITION” (DAICEL CORPORATION, priority 2013, published 2016).

In general, logP refers to a log measure of how a compound divides between an organic and an aqueous phase.

The series in a line: distribution coefficient (log P), measured between n-octanol and water. In kind it is physicochemical. As to conditions: experimental value, read-out: logP Observed. On the procedure:
On the other hand, the measured value of the distribution coefficient is calculated by the following equation using a concentration of a medicinal ingredient dissolved in each of two phases of water and n-octanol, which is obtained by a conventional quantitative method such as absorption spectrophotometry, gas chromatography or liquid chromatography:
Log P=Log [(concentration of the medicinal ingredient in n-octanol phase)/(concentration of the medicinal ingredient in water phase)

As to `O=C1O[C@H]([C@@H](O)CO)C(O)=C1O` [ascorbic acid], the logP is -2.15. For `CCOc1ccccc1C(N)=O` [ethenzamide] the value was 1.39.
